Experimental data reported in EP1916301A1, “METHOD FOR […] USING MOLECULE ON THE RB PATHWAY AS INDEX AND MOLECULAR […]” (BANYU PHARMACEUTICAL CO., LTD., priority 2005, dated 2007).

Columns and labels:
U-2 OS cell = test: Cell cycle analysis by flow cytometry (DNA staining) after doxorubicin treatment; assay type: cell-based; settings: for cell cycle arrest: 10 nM doxorubicin
Method: (§1) First, the U-2 OS cell and U-2 OS shRb cell were treated with 10 nM doxorubicin. The cells were collected after 24 hours and 48 hours, and the DNA of the cells were stained with the Cycle TESTTM PLUS DNA Reagent Kit (Becton Dickinson), and an analysis was carried out by flow cytometry.
(§2) Further, in what phase the respective cells were maintained in the cell cycle under the respective conditions is shown in Table 2. (Table 2)

U-2 OS shRb cell = test: Cell cycle analysis by flow cytometry (DNA staining) after doxorubicin treatment, Rb knockdown cell; assay type: cell-based
Method: Into U-2 OS cells with wild-type Rb, pSuperior-puro.shRb vector was transfected using Funege 6. After the transfected cells were cultured for 24 hours, the cells were cultured such that the number of cells became about one fiftieth, and then, the cells were cultured for about two weeks in the presence of 1.0 µg/mL of puromycin. A cell that formed a colony was isolated by a cylinder cloning method. Hereinafter, the established Rb knockdown cell was referred to as U-2 OS shRb.
as §1, §2

[1] = 10 nM doxorubicin for 24 hours, cell having only a vector introduced (Fig. 4)
[2] = 10 nM doxorubicin for 48 hours, cell having only a vector introduced (Fig. 5)
[3] = 10 nM doxorubicin for 24 hours, cell having an Rb shRNA introduced (Fig. 7)
[4] = 10 nM doxorubicin for 48 hours, cell having an Rb shRNA introduced (Fig. 8)

`COc1cccc2c1C(=O)c1c(O)c3c(c(O)c1C2=O)C[C@@](O)(C(=O)CO)C[C@@H]3O[C@H]1C[C@H](N)[C@H](O)[C@H](C)O1` [doxorubicin] was tested, and the “G1 (%)” value (U-2 OS cell; [1]) was 20%, the “G2/M (%)” value (U-2 OS cell; [1]) was 68% and the “S (%)” value (U-2 OS cell; [1]) was 11%. For the same compound, the “G1 (%)” value (U-2 OS cell; [2]) was 29%, the “G2/M (%)” value (U-2 OS cell; [2]) was 66% and the “S (%)” value (U-2 OS cell; [2]) was 5.4%. For the same compound, the cell cycle arrest (U-2 OS cell; at 24 hours after the treatment) was “arrested in the G2/M phase”, the cell cycle arrest (U-2 OS cell; at 48 hours after the treatment) was “arrested in the G2/M phase” and the “G1 (%)” value (U-2 OS shRb cell; [3]) was 35%. For the same compound, the “G2/M (%)” value (U-2 OS shRb cell; [3]) was 45%, the “S (%)” value (U-2 OS shRb cell; [3]) was 19% and the “G1 (%)” value (U-2 OS shRb cell; [4]) was 62%. The “G2/M (%)” value (U-2 OS shRb cell; [4]) was 23%, the “S (%)” value (U-2 OS shRb cell; [4]) was 16% and the cell cycle arrest (U-2 OS shRb cell; 10 nM doxorubicin, at 24 hours after the treatment) was “arrested in the G2/M phase”. For the same compound, the G2/M phase arrest (U-2 OS shRb cell; 10 nM doxorubicin, at 48 hours after the treatment) was “not maintained”.
